Data set [1] has as its target Cytochrome P450 3A4 (Homo sapiens, UniProt P08684).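 Note: CYP3A4 tested as one member of a cytochrome P450 panel screen.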
Data set [2] deals with T1, Interleukin-8 (Homo sapiens, UniProt P10145).
T1 sequence (P10145 whole entry): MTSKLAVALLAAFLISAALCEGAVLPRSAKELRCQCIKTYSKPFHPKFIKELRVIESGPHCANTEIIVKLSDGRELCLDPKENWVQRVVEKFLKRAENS
The data set is described as follows: SAR analysis of Tumor necrosis factor alpha (TNF-alpha) induced IL-8 secretion in MCF-7/NOD1 cells - Set 2. [Related pubchem assays (depositor defined):AID1575, AID2250, AID2260]. The data set is classed as functional, cell-based.

Data set [3] addresses T2, Nucleotide-binding oligomerization domain-containing protein 2 (Homo sapiens, UniProt Q9HC29). Kind of data set: inhibition of NOD2 signaling – set 2, SAR follow-up (AID 2475). The data set is classed as functional.
Data set [4] has as its target T3, Nucleotide-binding oligomerization domain-containing protein 1 (Homo sapiens, UniProt Q9Y239).
T3 sequence (Q9Y239 whole entry): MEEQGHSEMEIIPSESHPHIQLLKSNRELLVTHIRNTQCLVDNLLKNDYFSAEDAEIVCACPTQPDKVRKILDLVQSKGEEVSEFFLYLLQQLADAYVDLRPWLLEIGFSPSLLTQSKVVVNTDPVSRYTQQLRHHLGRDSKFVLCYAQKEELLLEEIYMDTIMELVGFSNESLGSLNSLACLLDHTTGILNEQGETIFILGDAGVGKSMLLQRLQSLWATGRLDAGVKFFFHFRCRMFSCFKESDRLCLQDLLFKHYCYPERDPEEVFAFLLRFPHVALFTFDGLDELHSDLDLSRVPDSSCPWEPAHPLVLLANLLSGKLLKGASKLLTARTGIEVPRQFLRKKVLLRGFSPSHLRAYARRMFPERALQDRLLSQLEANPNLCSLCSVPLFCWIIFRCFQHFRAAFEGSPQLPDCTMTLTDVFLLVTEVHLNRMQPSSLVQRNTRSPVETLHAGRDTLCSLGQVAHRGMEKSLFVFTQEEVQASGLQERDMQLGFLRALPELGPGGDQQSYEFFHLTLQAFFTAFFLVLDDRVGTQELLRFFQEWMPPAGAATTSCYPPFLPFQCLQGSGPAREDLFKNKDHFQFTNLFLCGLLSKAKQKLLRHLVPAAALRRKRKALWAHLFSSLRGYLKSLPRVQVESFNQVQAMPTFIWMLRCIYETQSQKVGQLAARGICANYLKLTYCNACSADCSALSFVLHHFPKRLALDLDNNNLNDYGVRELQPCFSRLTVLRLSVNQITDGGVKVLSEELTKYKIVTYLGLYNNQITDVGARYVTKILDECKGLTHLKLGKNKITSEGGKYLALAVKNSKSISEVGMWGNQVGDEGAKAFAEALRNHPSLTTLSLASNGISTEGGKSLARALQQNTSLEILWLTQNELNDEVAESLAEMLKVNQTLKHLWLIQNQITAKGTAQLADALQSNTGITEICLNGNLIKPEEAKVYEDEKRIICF
The data set is described as follows: SAR analysis of compounds that inhibit NOD1 - Set 3. [Related pubchem assays (depositor defined):AID1566, AID1575, AID1578, AID1849, AID1852, AID2333, AID2335, AID2466]. The data set is classed as functional.

For data set [5], the target named is Tumor necrosis factor (Homo sapiens, UniProt P01375). Kind of data set: analog potency on TNFa NF-kB signaling – cell-based, set 3, SAR follow-up (AID 2801). The data set is classed as functional.
Chain of Tumor necrosis factor (P01375 whole entry): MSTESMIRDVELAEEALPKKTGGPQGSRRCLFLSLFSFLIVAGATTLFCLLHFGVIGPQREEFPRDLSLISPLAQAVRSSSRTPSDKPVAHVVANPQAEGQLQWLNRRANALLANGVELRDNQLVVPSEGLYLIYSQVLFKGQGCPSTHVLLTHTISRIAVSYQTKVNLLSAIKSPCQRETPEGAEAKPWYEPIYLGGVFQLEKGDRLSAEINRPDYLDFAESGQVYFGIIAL
Data set [6] deals with HEK293. Kind of data set: SAR analysis of compounds that are cytotoxic to HEK293 - Set 3. [Related pubchem assays (depositor defined):AID1575, AID1578, AID1848, AID1849, AID2001, AID2333, AID2334, AID2335, AID2337, AID2469]. The data set is classed as functional, cell-based. As to conditions: Homo sapiens.
The target of data set [7] is T1, Interleukin-8. Kind of data set: SAR analysis of GM-Tri-DAP induced IL-8 secretion in MCF-7/NOD1 cells - Set 2. [Related pubchem assays (depositor defined):AID1575, AID1578, AID2333]. The data set is classed as functional, cell-based.
The subject of data set [8] is HEK293. Kind of data set: SAR analysis of compounds that are cytotoxic to HEK293 - Set 2. [Related pubchem assays (depositor defined):AID1575, AID1578, AID1849, AID2001, AID2333, AID2334, AID2335, AID2337, AID2800]. The data set is classed as functional, cell-based. As to conditions: Homo sapiens.
The target of data set [9] is T3, Nucleotide-binding oligomerization domain-containing protein 1. Kind of data set: SAR analysis of NF-kappaB dependent luciferase using DAP as an inducer - Set 2. [Related pubchem assays (depositor defined):AID1566, AID1575, AID1578, AID1579, AID1849, AID1852, AID2264]. The data set is classed as functional.
The target of data set [10] is T2, Nucleotide-binding oligomerization domain-containing protein 2. The data set is described as follows: inhibition of MDP-driven NOD2 NF-kB reporter – cell-based, set 3, SAR follow-up (AID 2799). The data set is classed as functional.

Active and inactive are the calls of the source.

T2 sequence (Q9HC29 whole entry, the tested form may be a part): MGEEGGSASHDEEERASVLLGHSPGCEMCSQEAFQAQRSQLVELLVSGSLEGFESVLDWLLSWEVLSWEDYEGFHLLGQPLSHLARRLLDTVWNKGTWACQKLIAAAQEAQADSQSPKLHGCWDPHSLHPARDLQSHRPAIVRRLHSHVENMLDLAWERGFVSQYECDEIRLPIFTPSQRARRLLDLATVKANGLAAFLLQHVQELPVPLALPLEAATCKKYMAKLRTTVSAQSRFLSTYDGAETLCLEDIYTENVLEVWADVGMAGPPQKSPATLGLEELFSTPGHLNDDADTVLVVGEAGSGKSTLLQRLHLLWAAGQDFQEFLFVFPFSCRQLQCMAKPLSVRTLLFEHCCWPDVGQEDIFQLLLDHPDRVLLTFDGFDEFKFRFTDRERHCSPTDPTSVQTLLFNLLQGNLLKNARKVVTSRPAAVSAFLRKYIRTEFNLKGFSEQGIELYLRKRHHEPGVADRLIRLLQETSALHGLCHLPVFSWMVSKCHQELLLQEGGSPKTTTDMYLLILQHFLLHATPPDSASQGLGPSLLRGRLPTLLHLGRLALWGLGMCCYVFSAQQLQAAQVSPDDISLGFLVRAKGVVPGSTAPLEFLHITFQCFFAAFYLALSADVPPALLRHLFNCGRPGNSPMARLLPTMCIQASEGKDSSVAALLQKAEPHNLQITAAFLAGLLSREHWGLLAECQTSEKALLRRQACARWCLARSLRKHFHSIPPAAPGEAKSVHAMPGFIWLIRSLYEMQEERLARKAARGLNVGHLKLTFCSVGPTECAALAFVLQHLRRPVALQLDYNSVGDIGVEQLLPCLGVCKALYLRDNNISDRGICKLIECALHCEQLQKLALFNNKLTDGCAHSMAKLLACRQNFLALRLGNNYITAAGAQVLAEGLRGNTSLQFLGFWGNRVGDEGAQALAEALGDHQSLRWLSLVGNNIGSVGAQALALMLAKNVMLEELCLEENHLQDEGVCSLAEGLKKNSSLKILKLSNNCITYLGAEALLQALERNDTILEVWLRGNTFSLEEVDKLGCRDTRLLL
Chain of Cytochrome P450 3A4 (P08684 whole entry): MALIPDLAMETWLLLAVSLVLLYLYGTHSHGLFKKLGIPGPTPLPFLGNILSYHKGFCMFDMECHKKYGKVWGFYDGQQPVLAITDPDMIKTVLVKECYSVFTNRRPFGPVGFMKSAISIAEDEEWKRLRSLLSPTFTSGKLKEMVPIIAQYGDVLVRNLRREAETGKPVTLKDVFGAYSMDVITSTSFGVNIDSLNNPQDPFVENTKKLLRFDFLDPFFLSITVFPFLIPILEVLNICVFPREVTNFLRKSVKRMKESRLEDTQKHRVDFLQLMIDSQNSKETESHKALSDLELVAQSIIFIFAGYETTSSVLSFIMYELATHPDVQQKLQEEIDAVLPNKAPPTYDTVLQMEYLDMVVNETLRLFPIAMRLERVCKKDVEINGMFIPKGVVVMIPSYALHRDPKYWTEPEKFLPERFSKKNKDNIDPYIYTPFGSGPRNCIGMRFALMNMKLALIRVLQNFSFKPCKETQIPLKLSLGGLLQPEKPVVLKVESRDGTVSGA

`CC(=O)Nc1ccccc1C(=O)OCc1ccc(C(=O)c2ccccc2)cc1`: the AC50 entry in data set [1] was “inconclusive”.
For the molecule `CCCCCn1c(SCCc2ccccc2)nc2c1c(=O)[nH]c(=O)n2C`, the IC50 in data set [2] was > 25 µM (inactive); in data set [3], > 20 µM (inactive); in data set [4], 1.74 µM (active); in [5], > 20 µM (inactive); in data set [6] it was > 20 µM (inactive); in [7] it was 4.1 µM (active). The values for the IC50 in data set [8], in data set [9] and in data set [10] were > 20 µM (inactive), > 25 µM (inactive) and > 20 µM (inactive), respectively.

Source of the values: ChEMBL document CHEMBL1201862, “PubChem BioAssay data set” (2004).
